In brackets after ≈: the same amount, converted by molar mass.
Test system: measles virus
Assay: microbe, parasite or virus in culture
Details: Measles morbillivirus, 24 h

| SMILES | MIC50 [µM] |
| --- | --- |
| CCOc1nn(-c2ccc(C3CC3)cn2)c(C)c1-c1ccccc1 [example 161A, 5-cyclopropyl-2-(3-ethoxy-5-methyl-4-phenyl-1H-pyrazol-1-yl)pyridine] | 0.5 to 5 (≈ 0.16 to 1.6 µg/mL) |
| Cc1c(Oc2cccc(F)c2)c(OC(C)C)nn1-c1ccc(C2CC2)cn1 [example 97, 5-cyclopropyl-2-(4-(3-fluorophenoxy)-3-isopropoxy-5-methyl-1H-pyrazol-1-yl)pyridine] | 0.05 to 0.5 (≈ 0.0184 to 0.184 µg/mL) |
| CCc1cnc(-n2nc(OC(C)C)c(Oc3ccc(F)cc3)c2C)nc1 [example 76, 5-ethyl-2-(4-(4-fluorophenoxy)-3-isopropoxy-5-methyl-1H-pyrazol-1-yl)pyrimidine] | 0.05 to 0.5 (≈ 0.0178 to 0.178 µg/mL) |
| COc1ccc(-n2nc(OC(C)C)c(Oc3c(F)cccc3F)c2C)cn1 [example 130, 5-(4-(2,6-difluorophenoxy)-3-isopropoxy-5-methyl-1H-pyrazol-1-yl)-2-methoxypyridine] | 0.5 to 5 (≈ 0.188 to 1.88 µg/mL) |
| CCOc1nn(-c2ccc(C3CC3)cn2)c(C)c1I [example 108, 5-cyclopropyl-2-(3-ethoxy-4-iodo-5-methyl-1H-pyrazol-1-yl)pyridine] | > 5 |
| CCOc1nn(-c2ncc(CC)cn2)c(C)c1Oc1ccccc1Cl [example 78, 2-(4-(2-chlorophenoxy)-3-ethoxy-5-methyl-1H-pyrazol-1-yl)-5-ethylpyrimidine] | 0.05 to 0.5 (≈ 0.0179 to 0.179 µg/mL) |
| COc1nn(-c2ccc(C)cn2)c(C)c1Cc1ccccc1 [example 137, 2-(4-benzyl-3-methoxy-5-methyl-1H-pyrazol-1-yl)-5-methylpyridine] | 0.5 to 5 (≈ 0.147 to 1.47 µg/mL) |
| CCOc1nn(-c2ccc(C(C)(C)O)cn2)c(C)c1Cc1ccccc1 [example 34, 2-(6-(4-benzyl-3-ethoxy-5-methyl-1H-pyrazol-1-yl)pyridin-3-yl)propan-2-ol] | > 5 |
| Cc1c(Oc2ccccc2F)c(OC(C)C)nn1-c1ncc(C2CC2)cc1C#N [example 52, 5-cyclopropyl-2-(4-(2-fluorophenoxy)-3-isopropoxy-5-methyl-1H-pyrazol-1-yl)nicotinonitrile] | 0.05 to 0.5 (≈ 0.0196 to 0.196 µg/mL) |
| CCc1cnc(-n2nc(CC(C)C)c(Cc3ccccc3)c2C)nc1 [example 121, 2-(4-benzyl-3-isobutyl-5-methyl-1H-pyrazol-1-yl)-5-ethylpyrimidine] | 0.0005 to 0.05 (≈ 0.000167 to 0.0167 µg/mL) |
| CC(C)Oc1nn(-c2ccc(C3CC3)cn2)cc1Oc1ccccc1F [example 65, 5-cyclopropyl-2-(4-(2-fluorophenoxy)-3-isopropoxy-1H-pyrazol-1-yl)pyridine] | 0.0005 to 0.05 (≈ 0.000177 to 0.0177 µg/mL) |
| COc1cc(-c2ccc(Cl)c(Cl)c2)n(-c2ccccn2)n1 [example 143, 2-(5-(3,4-dichlorophenyl)-3-methoxy-1H-pyrazol-1-yl)pyridine] | > 5 |
| CCOc1nn(-c2ncc(C3CC3)cc2C#N)c(C)c1Cc1ccccc1 [example 36, 2-(4-benzyl-3-ethoxy-5-methyl-1H-pyrazol-1-yl)-5-cyclopropylnicotinonitrile] | 0.05 to 0.5 (≈ 0.0179 to 0.179 µg/mL) |
| CCN(CC)Cc1c(Cc2ccccc2)c(OC(C)C)nn1-c1ncc(C2CC2)cn1 [example 169, N-((4-benzyl-1-(5-cyclopropylpyrimidin-2-yl)-3-isopropoxy-1H-pyrazol-5-yl)methyl)-N-ethylethanamine] | > 5 |
| CCOc1nn(-c2ncc(CC)cn2)c(CN2CCOCC2)c1Cc1ccccc1 [example 115, 4-((4-benzyl-3-ethoxy-1-(5-ethylpyrimidin-2-yl)-1H-pyrazol-5-yl)methyl)morpholine] | > 5 |
| CCOc1nn(-c2ncc(CC)cn2)c(C)c1Cc1ccccc1 [example 25, 2-(4-benzyl-3-ethoxy-5-methyl-1H-pyrazol-1-yl)-5-ethylpyrimidine] | 0.0005 to 0.05 (≈ 0.000161 to 0.0161 µg/mL) |
| CCOc1nn(-c2ncc(CC)cn2)c(C)c1-c1ccc(F)cc1F [example 154, 2-(4-(2,4-difluorophenyl)-3-ethoxy-5-methyl-1H-pyrazol-1-yl)-5-ethylpyrimidine] | > 5 |
| CCc1cnc(-n2nc(OC(C)C)c(Cc3ccc(OC)cc3)c2C)nc1 [example 111, 5-ethyl-2-(3-isopropoxy-4-(4-methoxybenzyl)-5-methyl-1H-pyrazol-1-yl)pyrimidine] | 0.05 to 0.5 (≈ 0.0183 to 0.183 µg/mL) |

From EP2929883A1, “Pyrazole derivatives as dihydroorotate dehydrogenase (DHODH) inhibitors” (INSTITUT PASTEUR, priority 2014, dated 2015)
